In brackets after ≈: the same amount, converted by molar mass. Several values for one entry are separate records, joined by “and”; a condition that tells them apart may be missing. Equal entries are not always repeated.
Legend:
Assay in all cases: ≥ marks a high value that may be exact or a test limit, other limits are often not marked, values filed in µg/mL are converted to µM
[1] = tested on: Staphylococcus epidermidis KCTC 3096
[2] = tested on: Aspergillus fumigatus KCTC 6145
[3] = tested on: Aspergillus flavus KCTC 6905
[4] = tested on: Pseudomonas aeruginosa KCTC 1637
[5] = tested on: Salmonella typhimurium KCTC 1926
[6] = tested on: Bacillus subtilis KCTC 1998
[7] = tested on: Pseudomonas aeruginosa ATCC 15692
[8] = tested on: Aspergillus parasiticus KCTC 6598
[9] = tested on: Listeria monocytogenes ATCC 19115
[10] = tested on: Aspergillus awamori KCTC 6915
[11] = tested on: Bacillus subtilis KCTC 1918
[12] = tested on: Listeria monocytogenes KCTC 3710
[13] = tested on: Proteus vulgaris KCTC 2433
[14] = tested on: Candida albicans KCTC 7270
[15] = tested on: Escherichia coli ATCC 25922
[16] = tested on: Staphylococcus aureus ATCC 25923
[17] = tested on: Trichosporon beigelii KCTC 7707
[18] = tested on: Staphylococcus epidermidis ATCC 12228
[19] = tested on: Pseudomonas aeruginosa ATCC 27853
[20] = tested on: Staphylococcus epidermidis ATCC 35984
[21] = tested on: Staphylococcus aureus ATCC 33591
Escherichia coli 170 = tested on: Escherichia coli 170
Acinetobacter baumannii = tested on: Acinetobacter baumannii
[22] = tested on: Klebsiella pneumoniae 913
[23] = tested on: Enterobacter cloacae 2524
[24] = tested on: Pseudomonas aeruginosa 4677
[25] = tested on: Shigella dysenteriae ATCC 9752
[26] = tested on: Candida albicans ATCC 64550
[27] = tested on: Klebsiella pneumoniae ATCC 10031
[28] = tested on: Salmonella enterica subsp. enterica serovar Typhimurium ATCC 14028
[29] = tested on: Staphylococcus aureus TK784
[30] = tested on: Micrococcus luteus ATCC 10240
[31] = tested on: Staphylococcus aureus ATCC 6538P
[32] = tested on: Bacillus subtilis ATCC 6633
[33] = tested on: Staphylococcus epidermidis
[34] = tested on: Pseudomonas aeruginosa K799
[35] = tested on: Pseudomonas aeruginosa H744
Escherichia coli KF111 = tested on: Escherichia coli KF111
Escherichia coli UB1005 = tested on: Escherichia coli UB1005
Escherichia coli KF130 = tested on: Escherichia coli KF130
[36] = tested on: Salmonella enterica subsp. enterica serovar Typhimurium ATCC 14028s
[37] = tested on: Pseudomonas aeruginosa H374
[38] = tested on: Staphylococcus aureus USA 300

CC[C@H](C)[C@H](NC(=O)[C@H](CCCCN)NC(=O)[C@H](CCCCN)NC(=O)[C@H](C)NC(=O)[C@H](CC(C)C)NC(=O)[C@H](CCCCN)NC(=O)[C@H](CCCCN)NC(=O)[C@H](CC(C)C)NC(=O)[C@H](CCCN=C(N)N)NC(=O)[C@H](CCCCN)NC(=O)[C@H](C)N)C(=O)N[C@@H](Cc1c[nH]c2ccccc12)C(=O)N[C@@H](CC(N)=O)C(=O)N[C@@H](Cc1c[nH]c2ccccc12)C(=O)N[C@@H](CCCCN)C(N)=O [AKRLKKLAKKIWNWK]
MIC [1]: 16 µM (≈ 30.6 µg/mL)
MIC [2]: 4 µM (≈ 7.64 µg/mL)
MIC [3]: ≥ 32 µM
MIC [4]: 2 µM (≈ 3.82 µg/mL)
MIC [5]: 2 µM (≈ 3.82 µg/mL)
MIC [6]: 4 µM (≈ 7.64 µg/mL)
MIC [7]: 2 µM (≈ 3.82 µg/mL)
MIC [8]: 8 µM (≈ 15.3 µg/mL)
MIC [9]: 2 µM (≈ 3.82 µg/mL)
MIC [10]: 16 µM (≈ 30.6 µg/mL)
MIC [11]: 4 µM (≈ 7.64 µg/mL)
MIC [12]: 2 µM (≈ 3.82 µg/mL)
MIC [13]: 4 µM (≈ 7.64 µg/mL)
MIC [14]: 16 µM (≈ 30.6 µg/mL)
MIC [15]: 22.6 µM (≈ 43.2 µg/mL)
MIC [16]: 5.66 µM and 16 µM
MIC [17]: ≥ 32 µM
MIC [18]: 16 µM (≈ 30.6 µg/mL)

CC[C@H](C)[C@H](NC(=O)[C@H](CCCCN)NC(=O)[C@@H](NC(=O)[C@H](Cc1ccccc1)NC(=O)[C@H](C)NC(=O)[C@H](CCCCN)NC(=O)CNC(=O)[C@H](Cc1ccccc1)NC(=O)[C@H](CCCCN)NC(=O)[C@H](CCCCN)NC(=O)[C@H](C)NC(=O)[C@H](CCCCN)NC(=O)[C@H](CCCCN)NC(=O)[C@@H](N)CC(C)C)C(C)C)C(=O)N[C@@H](CC(C)C)C(=O)N[C@@H](CCCCN)C(=O)N[C@@H](CCCCN)C(N)=O [LKKAKKFGKAFVKILKK]
MIC [19]: 1.43 µM (≈ 2.83 µg/mL)
MIC [20]: 8.1 µM (≈ 16 µg/mL)
MIC [21]: ≥ 259 µM
MIC [16]: > 259 µM

CC[C@H](C)[C@H](N)C(=O)N[C@@H](C)C(=O)N[C@@H](CO)C(=O)N[C@@H](CCCCN)C(=O)N[C@H](C(=O)N[C@@H](C)C(=O)N[C@@H](CC(N)=O)C(=O)N[C@H](C(=O)N[C@H](C(=O)N[C@@H](CCC(N)=O)C(=O)N[C@@H](CCCCN)C(=O)N[C@@H](CC(C)C)C(=O)N[C@@H](CCCCN)C(=O)N[C@@H](CCCN=C(N)N)C(=O)N[C@@H](CCCCN)C(=O)N[C@@H](C)C(=O)N[C@@H](CCCCN)C(=O)N[C@@H](CC(N)=O)C(=O)N[C@@H](C)C(=O)N[C@H](C(=O)O)C(C)C)C(C)C)[C@@H](C)O)C(C)C [IASKVANTVQKLKRKAKNAV]
MIC (Escherichia coli 170): ≥ 50 µM
MIC (Acinetobacter baumannii): ≥ 50 µM
MIC [22]: ≥ 50 µM
MIC [23]: ≥ 50 µM
MIC [15]: 25 µM (≈ 54.2 µg/mL)
MIC [24]: ≥ 50 µM

CC(C)C[C@H](NC(=O)[C@H](Cc1c[nH]c2ccccc12)NC(=O)[C@H](CCCCN)NC(=O)[C@H](CC(C)C)NC(=O)[C@H](CC(C)C)NC(=O)[C@H](Cc1c[nH]c2ccccc12)NC(=O)[C@H](CCCCN)NC(=O)[C@H](CC(C)C)NC(=O)[C@@H](N)CC(C)C)C(=O)N[C@@H](CCCCN)C(=O)N[C@@H](CCCCN)C(N)=O [LLKWLLKWLKK]
MIC [25]: 6.81 µM (≈ 9.99 µg/mL)
MIC [26]: ≥ 100 µM
MIC [27]: 13.6 µM (≈ 20 µg/mL)
MIC [28]: 27.2 µM (≈ 40 µg/mL)
MIC [19]: 6.81 µM (≈ 9.99 µg/mL)
MIC [29]: 3.4 µM (≈ 5 µg/mL)
MIC [30]: 0.885 µM (≈ 1.3 µg/mL)
MIC [15]: 6.81 µM (≈ 9.99 µg/mL)
MIC [31]: 0.885 µM (≈ 1.3 µg/mL)
MIC [18]: 0.885 µM (≈ 1.3 µg/mL)
MIC [32]: 0.885 µM (≈ 1.3 µg/mL)

CC[C@H](C)[C@H](NC(=O)[C@@H]1CCCN1C(=O)[C@H](CCCCN)NC(=O)[C@H](CC(C)C)NC(=O)[C@H](C)NC(=O)[C@@H](NC(=O)[C@H](Cc1cnc[nH]1)NC(=O)[C@H](CC(C)C)NC(=O)[C@@H](NC(=O)[C@@H](NC(=O)[C@H](CCCN=C(N)N)NC(=O)[C@H](C)NC(=O)[C@@H]1CCCN1C(=O)[C@H](CO)NC(=O)[C@H](CCCCN)NC(=O)[C@H](Cc1ccccc1)NC(=O)[C@@H](NC(=O)[C@H](CCCCN)NC(=O)[C@H](CC(C)C)NC(=O)[C@H](Cc1ccccc1)NC(=O)[C@H](CO)NC(=O)[C@H](CCCCN)NC(=O)[C@H](Cc1c[nH]c2ccccc12)NC(=O)[C@@H](N)CCCCN)[C@@H](C)O)[C@@H](C)O)C(C)C)[C@@H](C)O)C(=O)N[C@@H](CO)C(=O)N[C@@H](CO)C(=O)O [KWKSFLKTFKSPARTVLHTALKPISS]
MIC [33]: 21.5 µM (≈ 64 µg/mL)
MIC [34]: 10.8 µM (≈ 32 µg/mL)
MIC [35]: 10.8 µM (≈ 32 µg/mL)
MIC (Escherichia coli KF111): 1.35 µM (≈ 4 µg/mL)
MIC (Escherichia coli UB1005): 1.35 µM (≈ 4 µg/mL)
MIC [19]: 4 µM (≈ 11.9 µg/mL)
MIC (Escherichia coli KF130): 2.69 µM (≈ 8 µg/mL)
MIC [36]: 10.8 µM (≈ 32 µg/mL)
MIC [37]: 10.8 µM (≈ 32 µg/mL)

CC[C@H](C)[C@H](NC(=O)CN)C(=O)N[C@H](C(=O)N[C@@H](CCCCN)C(=O)N[C@H](C(=O)N[C@H](C(=O)N[C@@H](CCCCN)C(=O)N[C@@H](CO)C(=O)N[C@@H](CC(C)C)C(=O)N[C@H](C(=O)N[C@@H](CCC(=O)O)C(=O)N[C@@H](CCC(N)=O)C(=O)N[C@@H](Cc1ccccc1)C(=O)N[C@H](C(=O)NCC(=O)N[C@@H](CCCCN)C(=O)O)[C@@H](C)O)[C@@H](C)CC)[C@@H](C)CC)C(C)C)[C@@H](C)CC [GIIKVIKSLIEQFTGK]
MIC [38]: ≥ 64 µM
MIC [20]: ≥ 42 µM

CC[C@H](C)[C@H](NC(=O)[C@@H]1CCCN1C(=O)[C@H](CCCCN)NC(=O)[C@H](CC(C)C)NC(=O)[C@H](C)NC(=O)[C@@H](NC(=O)[C@H](Cc1ccc(O)cc1)NC(=O)[C@H](Cc1ccccc1)NC(=O)[C@@H](NC(=O)[C@@H](NC(=O)[C@H](CCCCN)NC(=O)[C@@H](NC(=O)[C@@H]1CCCN1C(=O)[C@H](CO)NC(=O)[C@H](CCCCN)NC(=O)[C@H](CC(C)C)NC(=O)[C@@H](NC(=O)[C@H](CCCCN)NC(=O)[C@H](CC(C)C)NC(=O)[C@H](Cc1ccccc1)NC(=O)[C@H](CO)NC(=O)[C@H](CCCCN)NC(=O)[C@H](Cc1c[nH]c2ccccc12)NC(=O)[C@@H](N)CCCCN)[C@@H](C)O)C(C)C)[C@@H](C)O)C(C)C)[C@@H](C)O)C(=O)N[C@@H](CO)C(=O)N[C@@H](CO)C(=O)O [KWKSFLKTLKSPVKTVFYTALKPISS]
MIC [33]: 10.7 µM (≈ 32 µg/mL)
MIC [34]: 5.34 µM (≈ 16 µg/mL)
MIC [35]: 5.34 µM (≈ 16 µg/mL)
MIC (Escherichia coli KF111): 0.667 µM (≈ 2 µg/mL)
MIC (Escherichia coli UB1005): 0.667 µM (≈ 2 µg/mL)
MIC (Escherichia coli KF130): 0.667 µM (≈ 2 µg/mL)
MIC [36]: 5.34 µM (≈ 16 µg/mL)
MIC [37]: 5.34 µM (≈ 16 µg/mL)

Source: DBAASP
